Experimental data as given in BindingDB's records for doi:10.1111/j.1747-0285.2007.00488.x (Shanghai Jiao Tong University, 2007).

Target: Vascular endothelial growth factor receptor 2 (Homo sapiens, UniProt P35968)
Assay: Kinase Inhibition Assay

Chain of Vascular endothelial growth factor receptor 2 (P35968 whole entry): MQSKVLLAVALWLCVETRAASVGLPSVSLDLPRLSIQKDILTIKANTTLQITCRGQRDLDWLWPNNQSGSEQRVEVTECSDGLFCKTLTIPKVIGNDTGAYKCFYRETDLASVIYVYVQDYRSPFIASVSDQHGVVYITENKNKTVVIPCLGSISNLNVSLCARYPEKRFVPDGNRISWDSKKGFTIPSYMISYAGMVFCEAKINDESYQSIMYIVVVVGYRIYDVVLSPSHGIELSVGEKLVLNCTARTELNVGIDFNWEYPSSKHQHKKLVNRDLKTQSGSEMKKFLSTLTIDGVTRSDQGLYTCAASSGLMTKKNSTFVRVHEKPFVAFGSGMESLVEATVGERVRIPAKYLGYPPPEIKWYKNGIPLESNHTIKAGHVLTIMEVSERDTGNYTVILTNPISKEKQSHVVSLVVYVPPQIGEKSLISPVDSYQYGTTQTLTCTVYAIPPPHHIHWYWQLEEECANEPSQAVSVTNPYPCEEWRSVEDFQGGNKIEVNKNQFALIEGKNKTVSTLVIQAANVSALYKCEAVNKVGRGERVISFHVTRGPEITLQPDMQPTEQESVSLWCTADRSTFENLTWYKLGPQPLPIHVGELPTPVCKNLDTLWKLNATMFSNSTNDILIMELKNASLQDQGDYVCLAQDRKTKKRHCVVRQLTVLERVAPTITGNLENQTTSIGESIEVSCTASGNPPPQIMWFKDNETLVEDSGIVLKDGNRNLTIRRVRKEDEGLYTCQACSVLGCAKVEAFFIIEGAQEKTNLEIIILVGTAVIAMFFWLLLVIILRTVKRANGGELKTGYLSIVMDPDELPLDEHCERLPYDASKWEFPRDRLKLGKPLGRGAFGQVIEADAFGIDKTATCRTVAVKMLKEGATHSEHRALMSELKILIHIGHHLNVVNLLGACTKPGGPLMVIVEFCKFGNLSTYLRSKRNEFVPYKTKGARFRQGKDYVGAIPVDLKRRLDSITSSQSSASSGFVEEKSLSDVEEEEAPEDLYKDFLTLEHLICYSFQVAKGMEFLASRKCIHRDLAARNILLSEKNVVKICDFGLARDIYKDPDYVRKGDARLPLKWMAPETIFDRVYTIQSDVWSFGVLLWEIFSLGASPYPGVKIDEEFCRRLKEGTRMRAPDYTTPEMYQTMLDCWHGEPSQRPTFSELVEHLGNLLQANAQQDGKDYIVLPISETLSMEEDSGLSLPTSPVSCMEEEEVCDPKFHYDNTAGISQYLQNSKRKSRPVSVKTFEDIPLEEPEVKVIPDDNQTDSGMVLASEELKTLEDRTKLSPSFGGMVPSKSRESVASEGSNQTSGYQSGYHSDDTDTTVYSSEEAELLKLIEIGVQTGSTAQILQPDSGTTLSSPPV

IC50: 0.018 µM
SMILES: NC[C@@H]1O[C@H](O[C@H]2[C@@H](O)[C@H](O[C@@H]3[C@@H](O)[C@H](N)C[C@H](N)[C@H]3O[C@H]3O[C@H](CN)[C@@H](O)[C@H](O)[C@H]3N)O[C@@H]2CO)[C@H](N)[C@@H](O)[C@@H]1O [KDR Kinase Inhibitor, 3]
